According to article PMC9226124, “Macrocycle-stabilization of its interaction with 14-3-3 increases plasma membrane localization and activity of CFTR” (Nature Communications, 2022):
Where “and” joins values, the source holds several entries; their conditions need not be identical. Equal entries are not always repeated.

How the values were obtained:
14-3-3β/BAD peptide = target: T1, 14-3-3β/BAD peptide (Homo sapiens, UniProt P31946); assay: FP assay of 14-3-3 partner protein peptide, BAD; assay type: binding; settings: for FP signal: BAD peptide, CY007424 100 μM
T1 construct: His6 (cleaved yes); made in house
T1 sequence (P31946 1-246): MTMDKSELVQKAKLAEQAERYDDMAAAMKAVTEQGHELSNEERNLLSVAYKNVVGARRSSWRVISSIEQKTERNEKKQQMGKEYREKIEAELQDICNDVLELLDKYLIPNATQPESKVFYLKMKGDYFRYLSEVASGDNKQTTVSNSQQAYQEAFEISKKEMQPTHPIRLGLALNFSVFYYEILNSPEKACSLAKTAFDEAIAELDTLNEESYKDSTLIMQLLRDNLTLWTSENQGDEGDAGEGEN
Protocol: (§1) The FITC-labeled peptides were dissolved in FP buffer (10 mM HEPES pH 7.4, 150 mM NaCl, 0.1% Tween20, 1 mg/mL BSA) to a final concentration of 100 nM or 10 nM. For the dose-response assays, a 14-3-3β concentration of 10 μM was used while titrating the compounds in a two-times dilution series and, for the other assays, a dilution series of 14-3-3β was made with constant concentration of compound. The dilution series were made in 384 Corning Black Round Bottom well plates and their polarization was measured with a Tecan Infinite F500 plate reader (ex. = 485 nm, em. = 535 nm). The method of fitting of the curves was: “log(agonist) vs. response – Variable slope (four parameters)” from GraphPad Prism. The equation is Y = Bottom + (Top-Bottom)/(1 + 10^((LogEC50-X)*HillSlope)).
(§2) Supplementary Figure 2. Stabilization of the interaction between 14-3-3β and a collection of different 14-3-3 partner protein peptides by CY00742 4. […] Background polarization was subtracted from all values, n=3 technical replicates. Source data are provided as a Source Data file.
(§3) (1 picture or pasted object on this page, not shown here)

14-3-3β/Foxo3 peptide = target: T2, 14-3-3β/Foxo3 peptide (Homo sapiens, UniProt P31946); assay: FP assay of 14-3-3 partner protein peptide, Foxo3; assay type: binding; settings: CY007424 100 μM
T2 construct: His6 (cleaved yes); made in house
T2 sequence (P31946 1-246): T1 sequence (P31946 1-246)
Protocol: as §1, §2, §3

14-3-3β/IRS1 peptide = target: T3, 14-3-3β/IRS1 peptide (Homo sapiens, UniProt P31946); assay: FP assay of 14-3-3 partner protein peptide, IRS1; assay type: binding; settings: 100 µM compound
T3 construct: His6 (cleaved yes); made in house
T3 sequence (P31946 1-246): T1 sequence (P31946 1-246)
Protocol: as §1, §2, §3

[1] = target: T4, F508del-CFTR in primary CFBE cells (Homo sapiens, UniProt P13569, DEL508-508); assay: Ussing chamber assay (short-circuit current); assay type: cell-based; design: short-circuit current after stimulation by forskolin and genistein: unit not given here; settings: 18 h
T4 construct: endogenous in cells; host or cells: primary CFBE cells, air-liquid interface culture
T4 sequence (P13569 with tags, fused parts or gaps DEL508-508): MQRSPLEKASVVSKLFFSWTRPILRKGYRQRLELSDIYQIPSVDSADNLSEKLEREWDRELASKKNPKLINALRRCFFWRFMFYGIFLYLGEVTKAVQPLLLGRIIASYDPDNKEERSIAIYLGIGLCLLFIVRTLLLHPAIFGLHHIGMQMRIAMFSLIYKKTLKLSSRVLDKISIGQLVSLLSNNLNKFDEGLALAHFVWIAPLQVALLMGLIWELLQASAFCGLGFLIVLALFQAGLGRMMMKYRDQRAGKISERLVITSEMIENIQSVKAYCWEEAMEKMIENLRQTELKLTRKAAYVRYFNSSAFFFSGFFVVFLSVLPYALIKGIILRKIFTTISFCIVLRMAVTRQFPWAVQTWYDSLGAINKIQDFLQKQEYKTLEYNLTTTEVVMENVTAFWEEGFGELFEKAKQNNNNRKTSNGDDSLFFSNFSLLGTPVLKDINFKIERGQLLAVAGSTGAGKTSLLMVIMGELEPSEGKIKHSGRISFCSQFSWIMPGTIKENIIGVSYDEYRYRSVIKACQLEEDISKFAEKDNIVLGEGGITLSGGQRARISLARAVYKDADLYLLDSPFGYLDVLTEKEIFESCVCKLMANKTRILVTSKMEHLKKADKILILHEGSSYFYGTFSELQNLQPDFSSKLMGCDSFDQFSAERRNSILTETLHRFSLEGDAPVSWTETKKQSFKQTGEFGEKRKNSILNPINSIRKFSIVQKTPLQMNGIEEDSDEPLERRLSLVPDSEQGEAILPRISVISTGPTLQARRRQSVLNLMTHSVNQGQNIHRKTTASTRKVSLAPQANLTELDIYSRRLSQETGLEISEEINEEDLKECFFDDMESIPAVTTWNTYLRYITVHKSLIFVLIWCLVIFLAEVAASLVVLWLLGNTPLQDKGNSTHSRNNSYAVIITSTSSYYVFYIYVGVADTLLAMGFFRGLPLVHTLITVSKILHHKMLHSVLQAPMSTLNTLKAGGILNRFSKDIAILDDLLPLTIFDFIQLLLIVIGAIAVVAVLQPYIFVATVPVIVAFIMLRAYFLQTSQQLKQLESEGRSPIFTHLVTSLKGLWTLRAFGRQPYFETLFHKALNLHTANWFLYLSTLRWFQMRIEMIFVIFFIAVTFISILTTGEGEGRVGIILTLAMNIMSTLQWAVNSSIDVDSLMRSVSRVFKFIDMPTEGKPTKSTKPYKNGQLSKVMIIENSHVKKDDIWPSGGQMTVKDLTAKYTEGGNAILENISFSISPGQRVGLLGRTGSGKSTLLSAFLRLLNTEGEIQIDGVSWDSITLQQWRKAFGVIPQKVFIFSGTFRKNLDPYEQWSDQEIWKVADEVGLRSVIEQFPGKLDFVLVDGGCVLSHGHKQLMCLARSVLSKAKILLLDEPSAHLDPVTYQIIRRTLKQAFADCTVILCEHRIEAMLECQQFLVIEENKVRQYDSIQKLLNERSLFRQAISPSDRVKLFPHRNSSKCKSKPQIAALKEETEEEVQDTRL
Protocol: Twelve (12) validated hit compounds from the initial screening and focused validation library were tested for their effect on F508del-CFTR trafficking. Baby hamster kidney (BHK) cells expressing 3HA-tagged F508del-CFTR were treated for 24 h with 10 μM compound. After fixation of the cells, a combination of mouse monoclonal anti-HA antibody and anti-mouse IgG conjugated with FITC was used to detect F508del-CFTR that had trafficked to the plasma membrane as described previously. […] Additionally, a fluorescence imaging plate reader (FLIPR) Membrane Potential (FMP) assay was performed. This assay measures real-time membrane potential changes associated with ion channel activation and ion transporter proteins. F508del-CFTR expressing BHK cells were incubated for 24 h with 20 μM compound before treatment with the potentiator genistein, FMP dye, and activator forskolin. The fluorescence intensity is thus a measure for the function of the CFTR protein in the plasma membrane of these cells. The F508del-CFTR corrector VX-809 (lumacaftor) and the triple combination Trikafta® were used as positive controls in this assay. […] Another cellular assay was performed with the Ussing Chamber, which detects and quantifies transport of ions across epithelial tissue. F508del-CFTR expressing cystic fibrosis epithelial (CFBE) cells were treated for 18 h with 20 μM CY007424. After forskolin and genistein stimulation, the short-circuit current of the cells was measured. […]

N=C(N)NCCCC1NCc2ccccc2Sc2ccccc2CNC(=O)C(Cc2ccc(O)cc2)NC(=O)C(CCCN)NC1=O (stereo not drawn) [CY007424]
stabilization of the 14-3-3/BAD peptide complex (14-3-3β/BAD peptide; 100 µM compound): some stabilization of the complex
FP signal (14-3-3β/BAD peptide; 14-3-3β 2.44141e-7 M): 59.3333
FP signal (14-3-3β/BAD peptide; 14-3-3β 4.88281e-7 M): 76.3333 and 74.3333 and 80.3333
FP signal (14-3-3β/BAD peptide; 14-3-3β 9.76563e-7 M): 77.3333 and 83.3333 and 79.3333
FP signal (14-3-3β/BAD peptide; 14-3-3β 1.95313e-6 M): 81.3333 and 79.3333 and 82.3333
FP signal (14-3-3β/BAD peptide; 14-3-3β 3.90625e-6 M): 74.3333 and 75.3333
FP signal (14-3-3β/Foxo3 peptide; 14-3-3β 3.8147e-9 M): 0.3333
FP signal (14-3-3β/Foxo3 peptide; 14-3-3β 3.05176e-8 M): 4.333 and 3.333
FP signal (14-3-3β/Foxo3 peptide; 14-3-3β 6.10352e-8 M): 7.333 and 6.333
FP signal (14-3-3β/Foxo3 peptide; 14-3-3β 1.2207e-7 M): 14.3333 and 19.3333 and 15.3333
FP signal (14-3-3β/Foxo3 peptide; 14-3-3β 2.44141e-7 M): 27.3333 and 29.3333 and 28.3333
FP signal (14-3-3β/Foxo3 peptide; 14-3-3β 4.88281e-7 M): 45.3333 and 46.3333 and 43.3333
FP signal (14-3-3β/Foxo3 peptide; 14-3-3β 9.76563e-7 M): 62.3333 and 55.3333
FP signal (14-3-3β/Foxo3 peptide; 14-3-3β 1.95313e-6 M): 71.3333 and 70.3333
FP signal (14-3-3β/Foxo3 peptide; 14-3-3β 3.90625e-6 M): 88.3333 and 86.3333 and 85.3333
FP signal (14-3-3β/Foxo3 peptide; 14-3-3β 7.8125e-6 M): 104.333 and 105.333 and 107.333
FP signal (14-3-3β/Foxo3 peptide; 14-3-3β 1.5625e-5 M): 129.333 and 126.333 and 125.333
FP signal (14-3-3β/Foxo3 peptide; 14-3-3β 3.125e-5 M): 145.333 and 149.333 and 146.333
FP signal (14-3-3β/Foxo3 peptide; 14-3-3β 6.25e-5 M): 167.333 and 166.333
FP signal (14-3-3β/Foxo3 peptide; 14-3-3β 0.000125 M): 181.333 and 182.333 and 185.333
FP signal (14-3-3β/Foxo3 peptide; 14-3-3β 0.00025 M): 195.333 and 193.333 and 196.333
stabilization of the 14-3-3/IRS1 peptide complex (14-3-3β/IRS1 peptide): some stabilization of the complex
short-circuit current after stimulation by forskolin and genistein ([1]; 20 μM CY07424, 1 μM VX-809, biological replicates): 1.424 and 1.182 and 1.788 (2×) and 1.697 and 2.091
conductance (short-circuit current) in words ([1]; 20 μM, forskolin and genistein stimulation): higher conductance than the DMSO control
